According to patent US20170281714A1, “METHOD OF TREATMENT USING L[…] G[…] COOPERATE WITH IL-10 TO MODULATE INFLAMMATORY RESPONSE TRIGGERED IN HIV+ AND TB IMMUNE-C[…] PATIENTS” (Your Energy Systems, LLC, priority 2014, published 2017):

Columns and labels:
IL-10 = IL-10 secretion by macrophages infected ex vivo with M. Tb H37Rv (FIG. 3; healthy individuals and Type 2 diabetes mellitus); type: cell-based, human; settings: NAC supplied in millimolar amounts
Excerpt: FIG. 3 is two bar graphs using various substances or compositions for raising glutathione in macrophages and how macrophages respond to these various methods. On the left is a control graph for healthy individuals. On the right is a graph for individuals affected with Type 2 diabetes mellitus.
The right graph of FIG. 3 depicts the response of macrophages from individuals with Type 2 diabetes mellitus ex vivo, which have been infected with M. Tb strain H37Rv.
Prior to the current invention, no method of lowering IL-10 in individuals with type 1 or type 2 diabetes mellitus has been proposed. Type 1 diabetes is an immune disorder in which the body's immune cells (white blood cells) attack and destroy insulin-producing beta cells in the pancreas. As a result, the body cannot produce insulin and glucose stays and builds up in the blood, where it damages all the organ systems. […] Similar to type 1 diabetes, type 2 causes a build-up of glucose in the blood which damages the body's organ systems. One of the key complications of Type 2 diabetes is prolonged infection and inhibited response to infection and poor wound healing. This Type 2 form of the disease is commonly referred to as adult-onset diabetes. Cytokine levels, such as for IL-10, in plasma samples can be determined by sandwich enzyme linked immunosorbent assay (ELISA) using assay kits from eBioscience (kit named ELISA Ready-Set-Go). […]

[1] = tested on: Mycobacterium tuberculosis; settings: NAC at 10 millimolar; cited from earlier work

CC(=O)N[C@@H](CS)C(=O)O [NAC, N-acetyl cysteine]
IL-10 level from macrophages in cell culture (IL-10): reduce to normal
M. tuberculosis CFU/ml in macrophages [1]: 8,000 CFU/ml
